This is an account of results in patent publication US20250019369A1, “N-(4-aminocyclohexyl)pyrimidine-4-carboxamide derivatives as CD38 inhibitors” (Cerevance, Inc., priority 2021, published 2025).

pIC50: −log10 of the molar value. Where a name gives a salt, the structure may show the parent alone. Read-outs that look alike come from different tables or passages of the source.

Series [1] is described as follows: Tissue binding assay, brain homogenate (equilibrium dialysis). The format is in vitro ADME. Conditions: dialysis 4 hours at 37° C., dilution factor 4. As to the method: (§1) Buffer preparation. A basic solution was prepared by dissolving 14.2 g/L Na2HPO4 and 8.77 g/L NaCl in deionized H2O. An acidic solution was prepared by dissolving 15.6 g/L NaH2PO4·2H2O and 8.77 g/L NaCl in deionized H2O. Using the acidic solution, the basic solution was then titrated to pH 7.4±0.1 and stored at 4° C. for up to 1 month. The stop solution was 100% CH3CN containing 200 ng/mL tolbutamide, 200 ng/mL labetalol and 50 ng/mL metformin.
(§2) Test method. Dialysis membrane strips were soaked in ultra-pure water at room temperature for ˜1 hour. Each membrane strip containing 2 membranes was separated and soaked in 20:80 EtOH/H2O (v/v) for ˜20 min, after which they were ready for use or were stored in the solution at 2-8° C. for up to 1 month. Prior to the experiment, the membrane was rinsed and soaked for 20 min in ultra-pure water. On the day of experiment, brain homogenate was thawed in a water bath at room temperature and incubated at 37° C. for 10 min before use. Test and control compounds were dissolved in DMSO to achieve 10 mM stock solutions. DMSO working solutions were prepared at 400 μM by diluting 10 μL of stock solution. To prepare the time zero (t=0) samples to be used for recovery determination, 50 μL aliquots of loading matrix were transferred in triplicate to the sample collection plate. The samples were immediately matched with opposite blank buffer to obtain a final volume of 100 μL of 1:1 matrix/dialysis buffer (v/v) in each well. 500 μL of stop solution were added to these t=0 samples. They were then stored at 2-8° C. pending further processes along with other post-dialysis samples. To load the dialysis device, an aliquot of 150 μL of the loading matrix was transferred to the donor side of each dialysis well in triplicate, and 150 μL of the dialysis buffer was loaded to the receiver side of the well. The dialysis plate was placed in a humidified incubator at 37° C. with 5% CO2 on a shaking platform that rotated slowly (about 100 rpm) for 4 hours. At the end of the dialysis, aliquots of 50 μL of samples were taken from both the buffer side and the matrix side of the dialysis device. These samples were transferred into new 96-well plates. Each sample was mixed with an equal volume of opposite blank matrix (buffer or matrix) to reach a final volume of 100 μL of 1:1 matrix/dialysis buffer (v/v) in each well. All samples were further processed by adding 500 μL of stop solution containing internal standards. The mixture was vortexed and centrifuged at 4000 rpm for about 20 min. An aliquot of 100 μL of supernatant of all the samples was then removed for LC-MS/MS analysis. The single blank samples were prepared by transferring 50 μL of blank matrix to a 96-well plate and adding 50 μL of blank PBS buffer to each well. Then the matrix-matched samples were further processed by adding 500 μL of stop solution containing internal standards, following the same sample processing method as the dialysis samples.
(§3) Data analysis. The % undiluted unbound, % undiluted bound and % recovery were calculated using the following equations:
(§4) % Undiluted Unbound=100*1/D/((1/(F/T)−1)+1/D)
(§5) % Undiluted Bound=100−% Undiluted Unbound
(§6) where F is the analyte concentration or peak area ratio of analyte/internal standard on the buffer (receiver) side of the membrane; T is the analyte concentration or peak area ratio of analyte/internal standard on the matrix (donor) side of the membrane; To is the analyte concentration or the peak area ratio of analyte/internal standard in the loading matrix sample at time zero; and D is the dilution factor determined as 4 in this assay.
(In equilibrium dialysis free small molecules cross a membrane that holds back macromolecules.)

The nature of series [2]: Tissue binding assay, plasma (equilibrium dialysis). The format is in vitro ADME. Conditions: dialysis 4 hours at 37° C. The protocol:
[The source words this procedure for another target and reports this target under the same test.] as §1, §2, §3, §4, §5, §6

A short description of series [3]: PK brain permeability in C57BL/6 mice after single oral gavage. Conditions: male, C57BL/6, mouse, 2 hours post dose; for concentration at 2 h: po, 10 mg/kg; for Kpu,u (unbound brain/plasma partition coefficient) at 2 h: oral 10 mg/kg, read-out: Kpu,u (unbound partitioning coefficient, Cb,u/Cp,u). The format is in vivo. The protocol: The distribution of compounds into the brain in vivo was determined in C57BL/6 mice following single oral (po) gavage administration.
Test compounds were formulated at 1 mg/mL in 0.5% HPMC E4 M, 0.2% Tween 80 in water to achieve solutions or homogenous suspensions suitable for po administration.
Formulations were administered to 3 male C57BL/6 mice at a volume of 10 mL/kg resulting in a dose level of 10 mg/kg. Blood samples were collected at 1 and 2 hours post dose into tubes containing K2EDTA as anticoagulant, processed to plasma and stored at −60° C. or lower until LC-MS/MS analysis. Brains were harvested 2 hours post dose, rinsed with saline, dried, weighed and homogenised under ice cold conditions. Brain homogenates were stored at −60° C. or lower until LC-MS/MS analysis.
Dose formulation concentrations were verified using a LC-UV or LC-MS/MS method. Test compound concentrations in plasma and brain homogenate were quantitatively determined using LC-MS/MS methods developed in individual matrices against calibration curves with QC samples included and acceptance criteria as per CRO SOPs. Concentrations in brain homogenate were corrected for the dilution factor used to prepare the homogenate to give concentrations in whole brain tissue.
Plasma and brain concentration versus time data were reported and plotted in excel. The brain to plasma ratio at 2 hours post dose was calculated for each animal using the following equation:
Brain:plasma=brain concentration (ng/g) at 2 h/plasma concentration (ng/mL) at 2 h
As only unbound test compound is available to exert an effect on the target, unbound plasma (Cp,u) and unbound brain (Cb,u) concentrations were calculated by correcting the total concentrations for the unbound fraction in plasma (fu,p) or brain (fu,b) determined from in vitro plasma protein or brain tissue binding assays using the following equations: […]
The unbound partitioning coefficient (Kpu,u) was then calculated based on the ratio of Cb,u to Cp,u using the following equation: […]
In these studies, mice were orally administrated a 10 mg/kg dose and sacrificed 2 hours post dose and tissue samples (brain homogenate and plasma) were analyzed subsequently as described above.

A further series deals with Recombinant human CD38 (Homo sapiens (Human), UniProt P28907). Kind of series: Human CD38 hydrolase assay (fluorescence, ε-NAD substrate). Conditions: recombinant human CD38 0.8 nM, 4 μM ε-NAD, 30 min preincubation at 25° C., pH 7.4. The format is biochemical. As to the method:
(§7) The ability of test compounds to inhibit human CD38 hydrolase activity was measured in a fluorescence-based assay using non-physiological NAD^+ substrate analogue 1,N^6-etheno NAD^+ (ε-NAD). Recombinant human CD38 (0.8 nM) was preincubated with test compounds in 384-well black microplates for 30 min at 25° C. in PBS (—Ca^2+/Mg^2+) containing 0.005% BSA (pH 7.4). CD38 hydrolase activity was initiated by addition of 4 μM ε-NAD, which yields the fluorescent product 1,N^6-etheno ADP-ribose. Formation of fluorescent product was followed using ClarioStar Plus (BMG) microplate reader by reading fluorescence (excitation λ=300 nm; emission λ=410 nm) at two time points, one immediately after substrate addition (t=0) and one at 10 min (t=10).
Data was analysed by subtracting the values detected at t=0 from t=10 to correct for variation in baseline fluorescence. Fluorescence values were converted to percent inhibition using the average of high signal (CD38 and ε-NAD) and low signal (CD38 and ε-NAD in the presence of a tool CD38 inhibitor) control wells. IC50 values were determined from a 10-point, half log concentration response curve with a four-parameter logistic equation.

For another series, the target named is Recombinant mouse CD38 (Mus musculus (Mouse), UniProt P56528). The experiment in a line: Mouse CD38 hydrolase assay (fluorescence, ε-NAD substrate). The format is biochemical. Conditions: recombinant mouse CD38 0.4 nM, 12 μM ε-NAD, 30 min preincubation at 25° C., pH 7.4. As to the method:
as §7, with “inhibit mouse” for “inhibit human”, “Recombinant mouse” for “Recombinant human”, “CD38 (0.4” for “CD38 (0.8”, “of 12” for “of 4”, “at 6” for “at 10”, “min (t=6).” for “min (t=10).”
Data was analysed by subtracting the values detected at t=0 from t=6 to correct for variation in baseline fluorescence, and fluorescence values were converted to percent inhibition using the average of high signal (CD38 and ε-NAD) and low signal (CD38 and ε-NAD in the presence of a tool CD38 inhibitor) control wells. IC50 values were determined from a 10-point, half log concentration response curve with a four-parameter logistic equation.

[4] abbreviates: brain, read-out: total brain conc.
The mark [5] stands for this setting: brain, total corrected for unbound fraction in brain, read-out: free brain conc.
[6] abbreviates: plasma, read-out: total plasma conc.
The mark [7] stands for this setting: plasma, total corrected for unbound fraction in plasma, read-out: free plasma conc.

Recombinant human CD38, sequence (P28907 whole entry): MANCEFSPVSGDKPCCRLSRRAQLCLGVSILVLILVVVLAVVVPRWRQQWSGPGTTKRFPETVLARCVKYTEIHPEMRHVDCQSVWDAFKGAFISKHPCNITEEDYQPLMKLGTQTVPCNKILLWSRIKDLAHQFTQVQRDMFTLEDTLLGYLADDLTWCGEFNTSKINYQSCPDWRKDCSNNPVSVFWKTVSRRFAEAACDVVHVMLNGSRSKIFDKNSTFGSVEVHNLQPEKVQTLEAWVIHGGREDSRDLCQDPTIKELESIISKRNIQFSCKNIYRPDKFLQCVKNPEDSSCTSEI
Recombinant mouse CD38, sequence (P56528 whole entry): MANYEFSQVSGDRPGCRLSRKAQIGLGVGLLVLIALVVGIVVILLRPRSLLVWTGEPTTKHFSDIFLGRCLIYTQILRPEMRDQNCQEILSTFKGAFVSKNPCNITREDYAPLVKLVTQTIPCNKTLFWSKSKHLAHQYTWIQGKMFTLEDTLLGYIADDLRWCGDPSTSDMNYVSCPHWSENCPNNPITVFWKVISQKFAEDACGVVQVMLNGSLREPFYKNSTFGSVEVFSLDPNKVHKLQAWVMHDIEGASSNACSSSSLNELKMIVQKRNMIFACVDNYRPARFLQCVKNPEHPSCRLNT

Take `Cc1cc(C(=O)N[C@H]2CC[C@H](OC(F)F)CC2)nc(-n2ccnc2)n1` [Example 17, N-((1r,4r)-4-(difluoromethoxy)cyclohexyl)-2-(1H-imidazol-1-yl)-6-methyl-pyrimidine-4-carboxamide, reference compound]: the “Mouse brain (% unbound)” value in series [1] is recorded as 13.6 % unbound. In addition, the “Mouse plasma (% unbound)” value in series [2] stood at 6.9 % unbound. The concentration at 2 h was determined as 77 nM in series [3] (setting [4]), 10 nM in series [3] (setting [5]), 1680 nM in series [3] (setting [6]) and 115 nM in series [3] (setting [7]). Also, the Kpu,u (unbound brain/plasma partition coefficient) at 2 h in series [3] came to 0.08.
In the case of `Cc1cc(C(=O)N[C@H]2CC[C@](C)(O)CC2)nc(-n2ccnc2)n1` [Example 18, N-((1r,4r)-4-hydroxy-4-methylcyclohexyl)-2-(1H-imidazol-1-yl)-6-methyl-pyrimidine-4-carboxamide, reference compound], the “Mouse brain (% unbound)” value in series [1] came to 28.4 % unbound. Further, the “Mouse plasma (% unbound)” value in series [2] stood at 25.3 % unbound. For the same molecule, the concentration at 2 h was found to be 430 nM in series [3] (setting [4]), 122 nM in series [3] (setting [5]), 13000 nM in series [3] (setting [6]) and 3290 nM in series [3] (setting [7]). The Kpu,u (unbound brain/plasma partition coefficient) at 2 h in series [3] worked out at 0.03.
A word on the pIC50: it is the negative decadic logarithm of the IC50, by convention in mol/L. For `Cc1cc(C(=O)N[C@H]2CC[C@H](NCC(F)(F)F)CC2)nc(-c2cncs2)n1` [Example 5, 6-methyl-2-(thiazol-5-yl)-N-((1r,4r)-4-((2,2,2-trifluoroethyl)amino)cyclohexyl)pyrimidine-4-carboxamide], the results for the negative-log IC50 (pIC50) at Recombinant human CD38 and at Recombinant mouse CD38 were at least 6.00 and at least 7.40, respectively.
The like results for `Cc1cc(C(=O)N[C@H]2CC[C@H](NCC(F)(F)F)CC2)nc(-n2cncc2C)n1` [Example 24, 6-methyl-2-(5-methyl-1H-imidazol-1-yl)-N-((1r,4r)-4-((2,2,2-trifluoroethyl)amino)cyclohexyl)pyrimidine-4-carboxamide] were, in that order, at least 7.00 and at least 7.40.
In the case of `Cc1cc(C(=O)N[C@H]2CC[C@H](NCCF)CC2)nc(-n2ccnc2)n1` [Example 9, N-((1r,4r)-4-((2-fluoroethyl)amino)cyclohexyl)-2-(1H-imidazol-1-yl)-6-methyl-pyrimidine-4-carboxamide formate], the pIC50 at Recombinant human CD38 was at least 6.00; on Recombinant mouse CD38, at least 7.40.
